For one assay, the target named is T1, AXL kinase (Homo sapiens, UniProt P30530).
T1 construct: purchased Invitrogen PV4803
T1 sequence (P30530 26-894): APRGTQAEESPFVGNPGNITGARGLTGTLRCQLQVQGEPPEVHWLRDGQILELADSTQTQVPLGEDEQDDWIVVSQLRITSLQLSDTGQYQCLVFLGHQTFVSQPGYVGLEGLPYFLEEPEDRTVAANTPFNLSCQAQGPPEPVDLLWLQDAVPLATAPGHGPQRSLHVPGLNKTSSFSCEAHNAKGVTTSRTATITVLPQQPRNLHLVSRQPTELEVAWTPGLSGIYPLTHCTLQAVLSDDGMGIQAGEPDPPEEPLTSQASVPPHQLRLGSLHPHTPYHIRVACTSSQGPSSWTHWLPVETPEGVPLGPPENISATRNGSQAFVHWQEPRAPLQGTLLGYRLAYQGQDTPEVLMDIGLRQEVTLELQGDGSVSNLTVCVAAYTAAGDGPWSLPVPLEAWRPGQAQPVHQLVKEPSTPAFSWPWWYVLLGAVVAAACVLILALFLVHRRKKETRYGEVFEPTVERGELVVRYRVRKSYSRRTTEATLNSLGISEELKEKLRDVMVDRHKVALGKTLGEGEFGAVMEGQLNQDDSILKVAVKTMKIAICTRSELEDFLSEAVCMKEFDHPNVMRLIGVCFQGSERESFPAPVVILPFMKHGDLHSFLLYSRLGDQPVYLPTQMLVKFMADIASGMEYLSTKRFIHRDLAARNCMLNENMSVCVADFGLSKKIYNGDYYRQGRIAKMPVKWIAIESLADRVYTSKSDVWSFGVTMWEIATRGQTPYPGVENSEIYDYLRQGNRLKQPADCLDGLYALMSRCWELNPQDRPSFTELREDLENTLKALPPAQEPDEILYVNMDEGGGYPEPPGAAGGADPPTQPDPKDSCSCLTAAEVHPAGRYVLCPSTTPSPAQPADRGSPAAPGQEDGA
As to the kind of experiment: IC50 test on AXL kinase (Z′-LYTE FRET kinase activity detection). The class given is biochemical. Particulars: for IC50: Z′-LYTE FRET peptide assay, 1 h reaction; for inhibitory activity on AXL kinase: competitive experiment with ATP, in words. From the text: Kinase activity detection: The activity of compounds on kinases was detected by a secondary reaction which used the Z′-LYTE™ technique (a detection using fluorescence, enzyme coupling, and based on differences in susceptibility of phosphorylated and non-phosphorylated polypeptides to proteolytic cleavage), followed the fluorescence resonance energy transfer (FRET) principle, and used Z′-LYTE™ FRET peptide substrates (Invitrogen, Z′-LYTE™ KINASE ASSAY KIT—TYR 2 PEPTIDE, PV3191). AXL kinase (invitrogen, PV4803) was diluted stepwise, FRET peptide was then added, followed by ATP, then by compounds at different concentrations, reacted for 1 h, site-specific proteases were then added to recognize and cleave non-phosphorylated FRET peptides, reacted for 1 h, and […] at 445 nm and 520 nm were detected using excitation wavelength of 400 nm.

Assay [1] concerns the target T2, FLT-3 kinase domain recombinant protein (Homo sapiens, UniProt P36888).
T2 construct: 50 μL FLT-3 kinase domain recombinant protein diluted with reaction buffer to initiate the reaction
T2 sequence (P36888 610-943 limits assumed): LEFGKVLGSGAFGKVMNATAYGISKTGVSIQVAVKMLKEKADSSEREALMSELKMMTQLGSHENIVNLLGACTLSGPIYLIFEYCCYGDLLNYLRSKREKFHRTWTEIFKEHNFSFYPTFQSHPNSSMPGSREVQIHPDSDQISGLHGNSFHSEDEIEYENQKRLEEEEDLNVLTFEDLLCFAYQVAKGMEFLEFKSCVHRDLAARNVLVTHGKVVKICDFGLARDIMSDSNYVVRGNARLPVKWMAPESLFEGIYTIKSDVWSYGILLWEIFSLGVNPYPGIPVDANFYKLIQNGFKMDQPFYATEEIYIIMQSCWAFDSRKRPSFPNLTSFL
As to the kind of experiment: Inhibition rate on FLT3 kinase (ELISA). The class given is biochemical. Particulars: two values per compound; for inhibition at 0.01 µM / inhibition at 0.1 µM / inhibition at 1 µM: read-out: Inhibition rate (%) against receptor tyrosine kinase FLT-3. How it is done: Conventional enzyme-linked immunosorbent assay (ELISA) method is used, and the specific steps are as follows
12,000 g of compounds were centrifuged for 5 min, DMSO was added to make a 10^−2M stock solution, vortexed uniformly and sonicated for 10 min for standby application, and stored at −40° C. The compounds were diluted from the stock solution with DMSO to 100 times the concentration to be tested (concentration of DMSO in the system being 1%) during the test.
1. The enzyme reaction substrate Poly (Glu, Tyr) 4:1 was diluted to 20 μg/mL with potassium-free PBS (10 mM sodium phosphate buffer, 150 mM NaCl, pH 7.2-7.4), the ELISA plate was coated with same in 125 μL/well, and reacted at 37° C. for 12-16 hours, the liquid in wells was discarded, the plate was washed three times, for 5 minutes each time, with T-PBS (potassium-free PBS with 0.1% Tween-20, 200 μL/well), and the ELISA plate was dried in an oven at 37° C. for 1-2 hours.
2. To each well were added 49 μL of ATP solution diluted with reaction buffer (50 mM HEPES pH 7.4, 50 mM MgCl2, 0.5 mM MnCl2, 0.2 mM Na3VO4, 1 mM DTT), 1 μL of compounds to be tested, and 50 μL FLT-3 kinase domain recombinant protein diluted with reaction buffer to initiate the reaction (two ATP-free control wells are required for each experiment). Subject to a shaker (100 rpm) at 37° C. and reacted for 1 hour. The liquid in wells was discarded, and the plate was washed three times with T-PBS.
3. Antibody PY99 diluent (the antibody was diluted in 1:500 with T-PBS which contains 5 mg/mL BSA) was added in 100 μL/well, subjected same to a shaker at 37° C. and reacted for 0.5 hour. The liquid in wells was discarded, and the plate was washed three times with T-PBS.
4. Horseradish peroxidase labeled goat anti-mouse secondary antibody diluent (the antibody was diluted in 1:2000 with T-PBS which contains 5 mg/ml BSA) was added in 100 μL/well, subjected same to a shaker at 37° C. and reacted for 0.5 hour. The liquid in wells was discarded, and the plate was washed three times with T-PBS.
5. 2 mg/ml of OPD developing solution (diluted with 0.1 M citric acid-sodium citrate buffer which contains 0.03% H2O2 (pH=5.4)) was added in 100 μL/well, and reacted at 25° C. in the dark for 1-10 minutes.
6. 2 M H2SO4 was added in 50 μL/well to stop the reaction, and the reading from the wavelength-adjustable microwell plate ELIASA VERSAmax was performed with a wavelength of 490 nm.
(In general: An ELISA detects its analyte on a solid surface through an enzyme-linked reagent.)

Several values for one entry are separate records, joined by “and”; a condition that tells them apart may be missing. Identical values can stand only once.

Molecule `Cc1c(C(=O)Nc2ccc(Oc3ncnc4[nH]cc(-c5ccccc5)c34)c(F)c2)c(=O)c2cc(C(C)(C)C)ccc2n1C` [TL4800062, 6-(tert-butyl)-N-(3-fluoro-4-((5-phenyl-7H-pyrrolo[2,3-d]pyrimidin-4-yl)oxy)phenyl)-1,2-dimethyl-4-oxo-1,4-dihydroquinoline-3-carboxamide] returned a half-inhibitory concentration (IC50) at AXL kinase of 42 nM. Also, the “Inhibition rate (%) against receptor tyrosine kinase FLT-3” value (from here on “Inhibition rate (%)”) was determined as 44.9% in assay [1] (compound 10 nM, 0.01 µM); 65.8% in assay [1] (compound 100 nM, 0.1 µM); 79.1% in assay [1] (compound 1000 nM, 1 µM). Further, the inhibition at 0.01 µM in assay [1] (compound 10 nM) stood at 40.5%. Besides, the inhibition at 0.1 µM in assay [1] (compound 100 nM) is 69.5%. Also, the inhibition at 1 µM in assay [1] (compound 1000 nM) was 84%.
Consider `COc1cc2ncnc(Oc3ccc(NC(=O)c4cn5c6c(cc(C)cc6c4=O)CCC5)cc3F)c2cc1OC` [TL4830032, N-(4-((6,7-dimethoxyquinazolin-4-yl)oxy)-3-fluorophenyl)-9-methyl-1-oxo-1,5,6,7-tetrahydropyrido[3,2,1-ij]quinoline-2-carboxamide], for which the half-inhibitory concentration (IC50) at AXL kinase was 26.5 nM. The “Inhibition rate (%)” value in assay [1] (compound 10 nM, 0.01 µM) stood at 62.8%; in assay [1] (compound 100 nM, 0.1 µM), 56.6%; in assay [1] (compound 1000 nM, 1 µM) it was 68.5%. Moreover, the inhibition at 0.01 µM in assay [1] (compound 10 nM) was 63.8%. Further, in assay [1] (compound 100 nM), the inhibition at 0.1 µM was determined as 69.8%. Besides, in assay [1] (compound 1000 nM), the inhibition at 1 µM was 72%.
Molecule `CCc1ccc2c(c1)c(=O)c(C(=O)Nc1ccc(Oc3ncnc4[nH]cc(-c5ccccc5)c34)c(F)c1)c(CC)n2C` [TL4830005, 2,6-diethyl-N-(3-fluoro-4-(5-phenyl-7H-pyrrolo[2,3-d]pyrimidin-4-yloxy)phenyl)-1-methyl-4-oxo-1,4-dihydroquinoline-3-carboxamide] returned a half-maximal inhibitory concentration (IC50) on AXL kinase of 23 nM. In addition, at AXL kinase, the “inhibitory activity on AXL kinase” value is recorded as “strong inhibitory activity”. For the same molecule, the “Inhibition rate (%)” value in assay [1] (compound 10 nM, 0.01 µM) was determined as 49.8%; in assay [1] (compound 100 nM, 0.1 µM) it was 53.3%; in assay [1] (compound 1000 nM, 1 µM) it was 59.9%. Besides, the inhibition at 0.01 µM in assay [1] (compound 10 nM) is 55.7%. Besides, in assay [1] (compound 100 nM), the inhibition at 0.1 µM was 50.1%. Besides, the inhibition at 1 µM in assay [1] (compound 1000 nM) was 71.4%.
As to `Cc1c(C(=O)Nc2ccc(Oc3ncnc4[nH]cc(-c5ccccc5)c34)c(F)c2)c(=O)c2cc(C(C)C)ccc2n1C` [TL50172, N-(3-fluoro-4-(5-phenyl-7H-pyrrolo[2,3-d]pyrimidin-4-yloxy)phenyl)-6-isopropyl-1,2-dimethyl-4-oxo-1,4-dihydroquinoline-3-carboxamide], the half-inhibitory concentration (IC50) at AXL kinase was determined as 26 nM. The “Inhibition rate (%)” value was found to be 54.2% in assay [1] (compound 10 nM, 0.01 µM); 72.9% in assay [1] (compound 100 nM, 0.1 µM); 84.6% in assay [1] (compound 1000 nM, 1 µM). In addition, in assay [1] (compound 10 nM), the inhibition at 0.01 µM stood at 59.4%. For the same molecule, the inhibition at 0.1 µM in assay [1] (compound 100 nM) is 62.6%. Moreover, the inhibition at 1 µM in assay [1] (compound 1000 nM) came out at 81.8%.
The molecule `Cc1c(C(=O)Nc2ccc(Oc3ncnc4[nH]cc(-c5ccccc5)c34)c(F)c2)c(=O)c2cc(OC(F)(F)F)ccc2n1C` [TL4800117, N-(3-fluoro-4-((5-phenyl-7H-pyrrolo[2,3-d]pyrimidin-4-yl)oxy)phenyl)-1,2-dimethyl-4-oxo-6-(trifluoromethoxy)-1,4-dihydroquinoline-3-carboxamide] registered an IC50 on AXL kinase of 75 nM. For the same molecule, the “Inhibition rate (%)” value in assay [1] (compound 10 nM, 0.01 µM) was 61.5%; in assay [1] (compound 100 nM, 0.1 µM), 70.2%; in assay [1] (compound 1000 nM, 1 µM), 74.1%. Also, the inhibition at 0.01 µM in assay [1] (compound 10 nM) turned out to be 59.5%. For the same molecule, in assay [1] (compound 100 nM), the inhibition at 0.1 µM was determined as 76.3%. In assay [1] (compound 1000 nM), the inhibition at 1 µM was 83.8%.
At AXL kinase, “6-ethyl-N-(3-fluorophenyl-1H-pyrrolo[2,3-d]pyridin-4-yl)oxy)phenyl)-1,2-dimethyl-4-oxo-1,4-dihydroquinoline-3-carboxamide [TL4800172]” displayed an IC50 of 29.8 nM. Besides, at AXL kinase, the “inhibitory activity on AXL kinase” value was “strong inhibitory activity”. Further, the “Inhibition rate (%)” value in assay [1] (compound 10 nM, 0.01 µM) is 63.7% and 55.0%; in assay [1] (compound 100 nM, 0.1 µM) it was 74.9% and 67.8%; in assay [1] (compound 1000 nM, 1 µM), 85.5% and 72.0%.
On to `Cc1ccc2c(c1)c(=O)c(C(=O)Nc1ccc(Oc3ncnc4[nH]cc(-c5ccccc5)c34)c(F)c1)c(-c1ccccc1)n2C` [TL4800144, N-(3-fluoro-4-(5-phenyl-7H-pyrrolo[2,3-d]pyrimidin-4-yloxy)phenyl)-1,6-dimethyl-4-oxo-2-phenyl-1,4-dihydroquinoline-3-carboxamide], for which the IC50 at AXL kinase was determined as 78 nM.
For the molecule `Cc1ccc2c(c1)c(=O)c(C(=O)Nc1ccc(Oc3ncnc4c3c(-c3ccccc3)cn4C)c(F)c1)c(C)n2C` [TL50134, N-(3-fluoro-4-(7-methyl-5-phenyl-7H-pyrrolo[2,3-d]pyrimidin-4-yloxy)phenyl)-1,2,6-trimethyl-4-oxo-1,4-dihydroquinoline-3-carboxamide], the IC50 at AXL kinase is greater than 10000 nM.
Still for that read-out and setting: next, `CCc1ccc2c(c1)c(=O)c(C(=O)Nc1ccc(Oc3ncnc4[nH]cc(-c5ccccc5)c34)c(F)c1)cn2C` [TL4800178, 6-ethyl-N-(3-fluoro-4-(5-phenyl-7H-pyrrolo[2,3-d]pyrimidin-4-yloxy)phenyl)-1-methyl-4-oxo-1,4-dihydroquinoline-3-carboxamide]: 56 nM; `CCc1ccc2c(c1)c(=O)c(C(=O)Nc1ccc(Oc3ncnc4[nH]ccc34)c(F)c1)c(C)n2C` [TL4800147]: 157 nM.

Usually IC50 stands for the concentration that inhibits the measured activity by half. Low readings indicate higher potency, high ones lower potency. The inhibition is the relative decrease from the control value, in per cent.
